Tested on: Plasmodium falciparum clone from CDC/Indochina III (W-2)
Assay: WRAIR in vitro antimalarial serial dilution assay ([3H]-hypoxanthine incorporation)
Assay type: cell-based
Settings: not given
Source text: The Walter Reed Army Institute of Research (WRAIR) in vitro screens for intrinsic antimalarial activity are based on modifications of procedures described in the literature [Desjardins, R. E. et al. (1979) J.D. Antimicrobial Agents and Chemotherapy, 16(6):710-8]; Chulay et al. (1983) [Journal of Infectious Diseases 148(1):148-55]; Milhous, W. K. et al. (1985) [Antimicrobial Agents and Chemotherapy 27(4):525-30]. The system is directed to the assessment of the intrinsic activity against the erythrocytic asexual life cycle (blood schizontocides)]. A minimum of 10 mg of sample is generally submitted for initial testing. Two Plasmodium falciparum clones from CDC/Indochina III (W-2) and CDC/Sierra Leone I (D-6) [Oduola, A. M. et al. (1988) [Experimental Parasitology 67(2):354-60] are used for all assays. W-2 is resistant to chloroquine, quinine and pyrimethamine and susceptible to mefloquine. D-6 is resistant to mefloquine and susceptible to chloroquine, quinine and pyrimethamine.
The clones are maintained in continuous log-phase growth in RPMI-1640 medium supplemented with 6% washed human A+ erythrocytes, 25 mM Hepes, […] NaHCO3 and 10% heat inactivated A+ human plasma or albuMAX™ (lipid-rich bovine serum albumin, GIBCO, Grand Island, N.Y.). All cultures and assays are conducted at 37° C. under an atmosphere of 5% CO2 and 5% O2, with a balance of N2.
The preliminary screen uses D-6 diluted to a 0.2% parasitemia in a 1% hematocrit in folic acid free and p-aminobenzoic acid free RPMI-1640 and albuMAX™ (FF-CM). […] The compound is further diluted to a stock solution to 10 ml with FF-CM. This stock solution is kept at −70° C. until used. The clone is preexposed, in duplicate, at three concentrations (50,000 ng/ml, 5,000 ng/ml and 50 ng/ml) of the test compound for 48 hr in a 96-well microliter plate (MTP) using a Biomek® 1000 automated laboratory workstation (Beckman Instruments, Fullerton, Calif.). Each MTP contains chloroquine-containing controls to assess the relative activity of the unknown compound and to monitor the response of D-6.
After the preincubation, [^3H]-hypoxanthine is added to each well of the MTP to determine if the parasites can still replicate or repair DNA. After 66 hr of total incubation time, the MTP are frozen to lyse the erythrocytes and parasites. The parasite DNA is recovered by harvesting the lysate onto glass-fiber filters using a Mark II cell-harvester (Tomtec, Orange, Conn.). The radioactivity is counted on a 1205 Betaplate™ liquid scintillation counter (Wallac, Turku, Finland).
The serial dilution assay is conducted using the same assay conditions and stock solution of the compound used for the preliminary screen. Both the D-6 and the W-2 clones are used. The compound is diluted two-fold over 11 different concentration ranges with a starting concentration that is based on the preliminary screen. The IC50 is determined by a non-linear logistic dose response analysis (TableCurve™, Jandel Scientific, Corte Madera, Calif.). […] For each assay, the IC50 for each clone is determined against the known antimalarials chloroquine, mefloquine, artemisinin, quinine and pyrimethamine. These control values establish the unknown compound's relative parasite susceptibility profile compared to known antimalarials. IC50s can be similarly determined for drug-resistant isolates/clones from a wide variety of geographic locations.

SMILES | antimalarial activity (in words)
O=C(/C=C/c1ccccc1O)c1ccc(O)cc1O [Compound 21] | activity similar to that of hydrazide derivative IV44A
COc1ccc(C(=O)/C=C/c2ccc([N+](=O)[O-])cc2)cc1OC [Compound 24] | poor activity
O=C(C=Cc1ccccc1)n1ccnc1 [Compound 48, cinnamoylimidazole, reference compound] | substantially no activity

Same assay, conditions: Plasmodium falciparum, Table I, formula III; W2 clone (CDC/Indochina III); * run: chloroquine 0.23 μM; † run: chloroquine 0.2-0.4 μM

IC50 [µM] | SMILES
0.23 | CCN(CC)CCCC(C)Nc1ccnc2cc(Cl)ccc12 (stereo not drawn) [Chloroquine, chloroquine, reference compound]

Same assay, conditions: Plasmodium falciparum, Table II, formula IV; * run: chloroquine 0.2-0.4 μM

IC50 [µM] | SMILES
0.2 to 0.4 | CCN(CC)CCCC(C)Nc1ccnc2cc(Cl)ccc12 (stereo not drawn) [Chloroquine, chloroquine, reference compound]

Same assay, conditions: Plasmodium falciparum, Table III, formula V

IC50 [µM] | SMILES
0.2 to 0.4 | CCN(CC)CCCC(C)Nc1ccnc2cc(Cl)ccc12 (stereo not drawn) [Chloroquine, chloroquine, reference compound]

Same assay, conditions: Plasmodium falciparum, read-out: WR, IC50 (μM), Table IV, formula VI

IC50 [µM] | SMILES
0.23 | CCN(CC)CCCC(C)Nc1ccnc2cc(Cl)ccc12 (stereo not drawn) [Chloroquine, chloroquine, reference compound]

Same assay, conditions: Plasmodium falciparum; similar tests

IC50 [µM] | SMILES
0.2 to 0.4 | CCN(CC)CCCC(C)Nc1ccnc2cc(Cl)ccc12 (stereo not drawn) [Chloroquine, chloroquine, reference compound]

Same assay, conditions: Plasmodium falciparum; similar tests; read-out: IC50

IC50 [µM] | SMILES
3.1 | COc1ccc(C(=O)/C=C/c2cccnc2)c(OC)c1 [Compound 44]
20 | Cn1cc(/C=C/C(=O)c2ccc(-n3ccnc3)cc2)c2ccccc21 [Compound 56]

Same assay, conditions: Table I, formula III; W2 clone (CDC/Indochina III); * run: chloroquine 0.23 μM; † run: chloroquine 0.2-0.4 μM

IC50 [µM] | SMILES
0.2 | CCN(CC)CCCC(C)Nc1ccnc2cc(Cl)ccc12 (stereo not drawn) [Chloroquine, chloroquine, reference compound]

Same assay, conditions: Table I, formula III; W2 clone (CDC/Indochina III); * run: chloroquine 0.23 μM; † run: chloroquine 0.2-0.4 μM; read-out: IC50

IC50 [µM] | SMILES
0.39 | COc1ccc(C(=O)/C=C/c2cccc(Cl)c2Cl)cc1OC [Compound 2]
0.42 | COc1ccc(C(=O)/C=C/c2ccc(Cl)cc2Cl)c(OC)c1 [Compound 3]
0.47 | COc1ccc(C(=O)/C=C/c2ccc(F)c(F)c2)c(OC)c1 [Compound 4]
0.63 | COc1ccc(C(=O)/C=C/c2ccc(Cl)cc2)c(OC)c1 [Compound 5]
0.74 | COc1ccc(C(=O)/C=C/c2cccc(Cl)c2)c(OC)c1 [Compound 6]
0.77 | COc1ccc(C(=O)/C=C/c2ccc(F)cc2F)c(OC)c1 [Compound 7]
0.9 | O=C(/C=C/c1cc(Cl)cc(Cl)c1)c1ccc(Cl)cc1Cl [Compound 8]
0.96 | COc1ccc(C(=O)/C=C/c2ccccc2OC)c(OC)c1 [Compound 9]
1.3 | COc1ccc(C(=O)/C=C/c2cc(F)ccc2F)c(OC)c1 [Compound 10]
1.4 | COc1ccc(C(=O)/C=C/c2ccc(N(C)C)cc2)c(OC)c1 [Compound 11]
1.9 | COc1ccc(/C=C/C(=O)c2cc(Cl)ccc2Cl)c(OC)c1 [Compound 12]
2 | COc1ccc(C(=O)/C=C/c2c(F)cccc2F)cc1OC [Compound 13]
2.4 | COc1ccc(C(=O)/C=C/c2c(Cl)cccc2Cl)c(OC)c1 [Compound 14]
3.2 | COc1ccc(/C=C/C(=O)c2ccc(Cl)c(Cl)c2)c(OC)c1 [Compound 16]
3.6 | COc1ccc(/C=C/C(=O)c2ccc(OC)cc2OC)c(OC)c1 [Compound 17]
3.6 | O=C(/C=C/c1ccc(Cl)cc1)c1ccc(Cl)cc1Cl [Compound 18]
3.6 | O=C(/C=C/c1ccccc1)c1ccc(O)cc1O [Compound 19]
3.9 | O=C(/C=C/c1ccccc1O)c1ccc(O)cc1O [Compound 21]
4.2 | COc1ccc(C(=O)/C=C/c2c(OC)cccc2OC)cc1OC [Compound 22]
5.8 | COc1ccc(C(=O)/C=C/c2ccccc2Cl)c(OC)c1 [Compound 23]

IC50 [µM] | SMILES
5.9 | COc1ccc(C(=O)/C=C/c2ccc([N+](=O)[O-])cc2)cc1OC [Compound 24]
6.9 | COc1ccccc1/C=C/C(=O)c1ccccc1O [Compound 25]
7.4 | O=C(/C=C/c1ccc(O)cc1)c1ccc(O)cc1O [Compound 26]
7.9 | COc1ccc(C(=O)/C=C/c2c(Cl)cccc2Cl)cc1OC [Compound 27]
8.1 | COc1ccc(C(=O)/C=C/c2c(F)cccc2F)c(OC)c1 [Compound 28]
8.6 | COc1ccc(C(=O)/C=C/c2c(OC)cccc2OC)c(OC)c1 [Compound 29]
8.8 | COc1ccc(C(=O)/C=C/c2cc(Cl)cc(Cl)c2)cc1OC [Compound 30]
10.1 | O=C(/C=C/c1ccccc1)c1ccc(O)c(O)c1O [Compound 31]
11.1 | COc1ccc(/C=C/C(=O)c2ccc(F)cc2F)c(OC)c1 [Compound 32]
14.6 | O=C(/C=C/c1ccc(Cl)cc1Cl)c1ccc(Cl)c(Cl)c1 [Compound 33]
14.7 | O=C(/C=C/c1ccccc1O)c1ccccc1O [Compound 34]
16.1 | COc1ccc(C(=O)/C=C/c2ccc(F)c(F)c2)cc1OC [Compound 35]
16.4 | COc1ccc(/C=C/C(=O)c2ccccc2O)cc1OC [Compound 36]
16.6 | COc1ccc(C(=O)/C=C/c2ccc(Cl)cc2)cc1OC [Compound 37]
19.5 | COc1ccc(C(=O)/C=C/c2ccc(Cl)cc2Cl)cc1OC [Compound 38]
23 | O=C(/C=C/c1ccc(O)cc1)c1ccccc1O [Compound 39]
31.7 | O=C(/C=C/c1ccc(Cl)cc1)c1ccc(Cl)c(Cl)c1 [Compound 40]
77 | O=C(/C=C/c1cccc(O)c1)c1ccccc1O [Compound 41]
109 | COc1ccc(C(=O)/C=C/c2ccc(F)cc2F)cc1OC [Compound 42]
> 148 | COc1ccc(C(=O)/C=C/c2cc(Cl)cc(Cl)c2)c(OC)c1 [Compound 43]

SMILES | IC50 [µM]
COc1ccc(/C=C/C(=O)c2ccc(Cl)cc2Cl)c(OC)c1 [Compound 20] | 3.8

Same assay, conditions: Table II, formula IV; * run: chloroquine 0.2-0.4 μM

IC50 [µM] | SMILES
0.2 | CCN(CC)CCCC(C)Nc1ccnc2cc(Cl)ccc12 (stereo not drawn) [Chloroquine, chloroquine, reference compound]

Same assay, conditions: Table III, formula V; read-out: IC50

IC50 [µM] | SMILES
0.72 | O=C(/C=C/c1ccc(Cl)cc1Cl)c1ccc(-n2ccnc2)cc1 [Compound 49]
0.91 | O=C(/C=C/c1cc(Cl)cc(Cl)c1)c1ccc(-n2ccnc2)cc1 [Compound 50]
1.8 | O=C(/C=C/c1cccc(Cl)c1Cl)c1ccc(-n2ccnc2)cc1 [Compound 51]
1.9 | O=C(/C=C/c1c(Cl)cccc1Cl)c1ccc(-n2ccnc2)cc1 [Compound 52]
3.2 | O=C(/C=C/c1ccc(F)cc1F)c1ccc(-n2ccnc2)cc1 [Compound 53]
7.8 | O=C(/C=C/c1c(F)cccc1F)c1ccc(-n2ccnc2)cc1 [Compound 54]
18 | CN(C)c1ccc(/C=C/C(=O)c2ccc(-n3ccnc3)cc2)cc1 [Compound 55]

Same assay, conditions: read-out: IC50

SMILES | IC50 [µM]
COc1ccc(/C=C/C(=O)c2ccccn2)c(OC)c1 [Compound 45] | 4.6
COc1ccc(/C=C/C(=O)c2cccnc2)c(OC)c1 [Compound 46] | 7.2
O=C(/C=C/c1ccc(Cl)c([N+](=O)[O-])c1)c1ccccn1 [Compound 47] | 8.2
O=C(C=Cc1ccccc1)n1ccnc1 [Compound 48, cinnamoylimidazole, reference compound] | > 253

Same assay, conditions: similar tests; read-out: IC50

IC50 [µM] | SMILES
0.38 | COc1ccc(C(=O)/C=C/c2cccc(Cl)c2Cl)c(OC)c1 [Compound 1]
2.8 | COc1ccc(C(=O)/C=C/c2cccc(F)c2F)c(OC)c1 [Compound 15]
